Tests used:
GST-Bcl-2 = GST-Bcl-2 (Homo sapiens, UniProt P10415); experiment: TR-FRET binding assay, GST-Bcl-2 with F-Bak peptide probe; conditions: for Ki: TR-FRET Binding Affinity; for Binding selectivity ratio (Bcl-XL Ki/Bcl-2 Ki): TR-FRET, Bcl-XL Ki divided by Bcl-2 Ki
Experimental: (§1) Tb-anti-GST antibody was purchased from Invitrogen (Catalog No. PV4216).
(§2) Representative compounds were serially diluted in dimethyl sulfoxide (DMSO) starting at 50 μM (2× starting concentration; 10% DMSO) and 10 μL were transferred into a 384-well plate.
(§3) The samples were then mixed on a shaker for 1 minute and incubated for an additional 3 hours at room temperature. For each assay, the probe/antibody and protein/probe/antibody were included on each assay plate as negative and positive controls, respectively. Fluorescence was measured on the ENVISION plate reader (Perkin Elmer) using a 340/35 nm excitation filter and 520/525 (F-Bak peptide) and 495/510 nm (Tb-labeled […] antibody) emission filters.
(§4) The inhibition constant (Ki) is the dissociation constant of an enzyme-inhibitor complex or a protein/small molecule complex, wherein the small molecule is inhibiting binding of one protein to another protein or peptide. […] Inhibition constants were determined using Wang's equation (Wang Z-X., An Exact Mathematical Expression For Describing Competitive Binding Of Two Different Ligands To A Protein Molecule. FEBS Lett. 1995, 360:111-4).

GST-Bcl-XL = GST-Bcl-XL (Homo sapiens, UniProt Q07817); experiment: TR-FRET binding assay, GST-Bcl-XL with F-Bak peptide probe; conditions: TR-FRET Binding Affinity
Experimental: as §1, §2, §3, §4

[1] = GST-Bcl-XL, F-Bak peptide probe

GST-Bcl-2, sequence (P10415 whole entry): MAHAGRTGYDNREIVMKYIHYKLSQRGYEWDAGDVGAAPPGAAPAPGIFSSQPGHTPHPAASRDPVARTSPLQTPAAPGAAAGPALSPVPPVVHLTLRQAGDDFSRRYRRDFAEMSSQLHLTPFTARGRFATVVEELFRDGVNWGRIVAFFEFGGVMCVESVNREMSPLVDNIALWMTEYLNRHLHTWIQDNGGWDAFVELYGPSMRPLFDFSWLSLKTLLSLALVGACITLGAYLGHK
GST-Bcl-XL, sequence (Q07817 whole entry): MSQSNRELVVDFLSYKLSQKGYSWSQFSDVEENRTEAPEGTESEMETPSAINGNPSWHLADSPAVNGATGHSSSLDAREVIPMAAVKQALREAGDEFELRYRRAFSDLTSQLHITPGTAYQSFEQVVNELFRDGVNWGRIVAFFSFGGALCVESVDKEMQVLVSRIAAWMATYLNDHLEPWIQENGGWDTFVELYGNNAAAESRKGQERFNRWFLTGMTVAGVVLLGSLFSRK

Row | Structure (SMILES) | Ki (GST-Bcl-2; GST-Bcl-2, F-Bak peptide probe) [nM] | Ki (GST-Bcl-XL; [1]) [nM] | Ki (GST-Bcl-2) [nM] | Binding selectivity ratio (Bcl-XL Ki/Bcl-2 Ki) (GST-Bcl-2) | Ki (GST-Bcl-XL) [nM]
1 | O=C(NS(=O)(=O)c1ccc(NCC2CCOCC2)c(S(=O)(=O)C(F)(F)F)c1)c1ccc(N2CCN(Cc3cc(OCCCN4CCCCC4)ccc3-c3ccc(Cl)cc3)CC2)cc1Oc1ccccc1 [Example 118, 4-(4-{[4′-chloro-4-(3-piperidin-1-ylpropoxy)-1,1′-biphenyl-2-yl]methyl}piperazin-1-yl)-2-phenoxy-N-({4-[(tetrahydro-2H-pyran-4-ylmethyl)amino]-3-[(trifluoromethyl)sulfonyl]phenyl}sulfonyl)benzamide] | 0.769 | > 660 |  |  | 
2 | CC1(C)CCC(CN2CCN(c3ccc(C(=O)NS(=O)(=O)c4ccc(OCC5(F)CCOCC5)c(C(F)(F)F)c4)c(Oc4cccc5[nH]ncc45)c3)CC2)=C(c2ccc(Cl)cc2)C1 [Example 497, 4-(4-{[2-(4-chlorophenyl)-4,4-dimethylcyclohex-1-en-1-yl]methyl}piperazin-1-yl)-N-({4-[(4-fluorotetrahydro-2H-pyran-4-yl)methoxy]-3-(trifluoromethyl)phenyl}sulfonyl)-2-(1H-indazol-4-yloxy)benzamide] |  |  | 0.082 | 1517.4 | 124
3 | COC(=O)N1CCOC(CNc2ccc(S(=O)(=O)NC(=O)c3ccc(N4CCN(CC5=C(c6ccc(Cl)cc6)CC(C)(C)CC5)CC4)cc3Oc3cccc4[nH]ncc34)cc2[N+](=O)[O-])C1 (centres unmarked) [Example 505, methyl 2-{[(4-{[4-(4-{[2-(4-chlorophenyl)-4,4-dimethylcyclohex-1-en-1-yl]methyl}piperazin-1-yl)-2-(1H-indazol-4-yloxy)benzoyl]sulfamoyl}-2-nitrophenyl)amino]methyl}morpholine-4-carboxylate] |  |  | < 0.01 | >486.1 | 4.86
4 | O=C(NS(=O)(=O)c1ccc(NCCCN2CCCC2)c([N+](=O)[O-])c1)c1ccc(N2CCN(Cc3ccccc3-c3ccc(Cl)cc3)CC2)cc1Oc1ccccc1 [Example 91, 4-{4-[(4′-chloro-1,1′-biphenyl-2-yl)methyl]piperazin-1-yl}-N-({3-nitro-4-[(3-pyrrolidin-1-ylpropyl)amino]phenyl}sulfonyl)-2-phenoxybenzamide] | 0.193 | 10.2 |  |  | 
5 | CC1(C)CCC(CN2CCN(c3ccc(C(=O)NS(=O)(=O)c4ccc(OCC5(F)CCOCC5)c(Cl)c4)c(Oc4cccc5[nH]cnc45)c3)CC2)=C(c2ccc(Cl)cc2)C1 [Example 499, 2-(1H-benzimidazol-4-yloxy)-N-({3-chloro-4-[(4-fluorotetrahydro-2H-pyran-4-yl)methoxy]phenyl}sulfonyl)-4-(4-{[2-(4-chlorophenyl)-4,4-dimethylcyclohex-1-en-1-yl]methyl}piperazin-1-yl)benzamide] |  |  | < 0.01 | >10415.0 | 104
6 | O=C(NS(=O)(=O)c1ccc(NCc2cccs2)c([N+](=O)[O-])c1)c1ccc(N2CCN(Cc3ccccc3-c3ccc(Cl)cc3)CC2)cc1Oc1ccccc1 [Example 162, 4-{4-[(4′-chloro-1,1′-biphenyl-2-yl)methyl]piperazin-1-yl}-N-({3-nitro-4-[(thien-2-ylmethyl)amino]phenyl}sulfonyl)-2-phenoxybenzamide] | 1.35 | 167 |  |  | 
7 | CCN(C)C(=O)N1CCOC(CNc2ccc(S(=O)(=O)NC(=O)c3ccc(N4CCN(CC5=C(c6ccc(Cl)cc6)CC(C)(C)CC5)CC4)cc3Oc3cccc4[nH]cnc34)cc2[N+](=O)[O-])C1 (centres unmarked) [Example 507, 2-{[(4-{[2-(1H-benzimidazol-4-yloxy)-4-(4-{[2-(4-chlorophenyl)-4,4-dimethylcyclohex-1-en-1-yl]methyl}piperazin-1-yl)benzoyl]sulfamoyl}-2-nitrophenyl)amino]methyl}-N-ethyl-N-methylmorpholine-4-carboxamide] |  |  | < 0.01 | >3334.7 | 33.3
8 | CN(C)CCCNc1ccc(S(=O)(=O)NC(=O)c2ccc(N3CCN(Cc4ccccc4-c4ccc(Cl)cc4)CC3)cc2Oc2ccc3[nH]ccc3c2)cc1S(=O)(=O)C(F)(F)F [Example 64, 4-{4-[(4′-chloro-1,1′-biphenyl-2-yl)methyl]piperazin-1-yl}-N-({4-{[3-(dimethylamino)propyl]amino}-3-[(trifluoromethyl)sulfonyl]phenyl}sulfonyl)-2-(1H-indol-5-yloxy)benzamide] | 0.523 | 40.3 |  |  | 
9 | O=C(NS(=O)(=O)c1ccc(NCCCN2CCOCC2)c([N+](=O)[O-])c1)c1ccc(N2CCN(Cc3ccccc3-c3ccc(Cl)cc3)CC2)cc1Oc1cccc2[nH]ccc12 [Example 58, 4-{4-[(4′-chloro-1,1′-biphenyl-2-yl)methyl]piperazin-1-yl}-2-(1H-indol-4-yloxy)-N-({4-[(3-morpholin-4-ylpropyl)amino]-3-nitrophenyl}sulfonyl)benzamide] | 1.08 | 288 |  |  | 
10 | CC1CC(=O)NN=C1c1ccc(S(=O)(=O)NC(=O)c2ccc(N3CCN(Cc4ccccc4-c4ccc(Cl)cc4)CC3)cc2Oc2ccccc2)cc1 (centres unmarked) [Example 29, 4-{4-[(4′-chloro-1,1′-biphenyl-2-yl)methyl]piperazin-1-yl}-N-{[4-(4-methyl-6-oxo-1,4,5,6-tetrahydropyridazin-3-yl)phenyl]sulfonyl}-2-phenoxybenzamide] | 11.9 | > 660 |  |  | 
11 | CC1(C)CCC(CN2CCN(c3ccc(C(=O)NS(=O)(=O)c4cnc(OCCC5CCCO5)c(Cl)c4)c(Oc4cccc5[nH]ncc45)c3)CC2)=C(c2ccc(Cl)cc2)C1 (centres unmarked) [Example 461, 4-(4-{[2-(4-chlorophenyl)-4,4-dimethylcyclohex-1-en-1-yl]methyl}piperazin-1-yl)-N-{[5-chloro-6-(2-tetrahydrofuran-2-ylethoxy)pyridin-3-yl]sulfonyl}-2-(1H-indazol-4-yloxy)benzamide] |  |  | 0.093 | 39.4 | 3.65
12 | CC1(C)CCC(CN2CCN(c3ccc(C(=O)NS(=O)(=O)c4ccc(NCC5CN(C6COC6)CCO5)c([N+](=O)[O-])c4)c(Oc4cccc5[nH]cnc45)c3)CC2)=C(c2ccc(Cl)cc2)C1 (centres unmarked) [Example 433, 2-(1H-benzimidazol-4-yloxy)-4-(4-{[2-(4-chlorophenyl)-4,4-dimethylcyclohex-1-en-1-yl]methyl}piperazin-1-yl)-N-[(3-nitro-4-{[(4-oxetan-3-ylmorpholin-2-yl)methyl]amino}phenyl)sulfonyl]benzamide] | < 0.01 | 2.29 |  |  | 
13 | O=C(NS(=O)(=O)c1ccc(NCC2CCOCC2)c([N+](=O)[O-])c1)c1ccc(N2CCN(CC3=C(c4ccc(Cl)cc4)CCC(F)(F)C3)CC2)cc1Oc1cccc2[nH]ncc12 [Example 524, 4-(4-{[2-(4-chlorophenyl)-5,5-difluorocyclohex-1-en-1-yl]methyl}piperazin-1-yl)-2-(1H-indazol-4-yloxy)-N-({3-nitro-4-[(tetrahydro-2H-pyran-4-ylmethyl)amino]phenyl}sulfonyl)benzamide] |  |  | < 0.01 | >2218.4 | 22.2
14 | CC1(C)CCC(CN2CCN(c3ccc(C(=O)NS(=O)(=O)c4ccc(NC[C@H]5CC[C@@](C)(O)CC5)c([N+](=O)[O-])c4)c(Oc4cccc5[nH]ncc45)c3)CC2)=C(c2ccc(Cl)cc2)C1 [Example 526, 4-(4-{[2-(4-chlorophenyl)-4,4-dimethylcyclohex-1-en-1-yl]methyl}piperazin-1-yl)-N-[(4-{[(cis-4-hydroxy-4-methylcyclohexyl)methyl]amino}-3-nitrophenyl)sulfonyl]-2-(1H-indazol-4-yloxy)benzamide] |  |  | < 0.01 | >467.9 | 4.68

— patent US9073855B2, “BCL-2 selective apoptosis-inducing agents for the treatment of cancer and immune diseases” (AbbVie Inc., priority 2008, dated 2015)
